Data: ChEMBL document CHEMBL4196084 (Eur J Med Chem, 2018)
pIC50, pKi: −log10 of the molar value. Activity calls are given as the source filed them. No cut-off for these calls is given here.

Legend:
Cholinesterase = Cholinesterase (Homo sapiens, UniProt P06276)
Description: Inhibition of human plasmatic BuChE using butyrylthiocholine iodide as substrate preincubated for 5 mins followed by substrate addition measured at 2 mins time interval by Ellman's method

[1] = target: T1, Muscarinic acetylcholine receptor M1 (Homo sapiens) (UniProt P11229); assay: Positive allosteric modulation of human M1 mAChR expressed in CHO cells assessed as increase in oxotremorine M-stimulated calcium influx preincubated for 10 mins followed by oxotremorine M addition by Fluo-4 NW dye based fluorescence assay; format: functional, cell-based
T1 sequence (whole entry): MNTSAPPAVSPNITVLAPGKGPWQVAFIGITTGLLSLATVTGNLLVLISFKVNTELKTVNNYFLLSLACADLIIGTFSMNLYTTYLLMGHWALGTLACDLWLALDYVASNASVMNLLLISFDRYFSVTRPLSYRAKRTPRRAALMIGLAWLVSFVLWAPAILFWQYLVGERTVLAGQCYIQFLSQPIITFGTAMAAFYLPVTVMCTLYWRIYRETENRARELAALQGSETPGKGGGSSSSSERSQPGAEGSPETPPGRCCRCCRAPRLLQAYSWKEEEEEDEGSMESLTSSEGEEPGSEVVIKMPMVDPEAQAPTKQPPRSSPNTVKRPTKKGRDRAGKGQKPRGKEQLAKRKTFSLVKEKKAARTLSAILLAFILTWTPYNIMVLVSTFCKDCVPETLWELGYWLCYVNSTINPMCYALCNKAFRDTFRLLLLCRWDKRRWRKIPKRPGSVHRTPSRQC

Acetylcholinesterase [2] = target: T2, Acetylcholinesterase (Homo sapiens, UniProt P22303)
T2 sequence (P22303 whole entry): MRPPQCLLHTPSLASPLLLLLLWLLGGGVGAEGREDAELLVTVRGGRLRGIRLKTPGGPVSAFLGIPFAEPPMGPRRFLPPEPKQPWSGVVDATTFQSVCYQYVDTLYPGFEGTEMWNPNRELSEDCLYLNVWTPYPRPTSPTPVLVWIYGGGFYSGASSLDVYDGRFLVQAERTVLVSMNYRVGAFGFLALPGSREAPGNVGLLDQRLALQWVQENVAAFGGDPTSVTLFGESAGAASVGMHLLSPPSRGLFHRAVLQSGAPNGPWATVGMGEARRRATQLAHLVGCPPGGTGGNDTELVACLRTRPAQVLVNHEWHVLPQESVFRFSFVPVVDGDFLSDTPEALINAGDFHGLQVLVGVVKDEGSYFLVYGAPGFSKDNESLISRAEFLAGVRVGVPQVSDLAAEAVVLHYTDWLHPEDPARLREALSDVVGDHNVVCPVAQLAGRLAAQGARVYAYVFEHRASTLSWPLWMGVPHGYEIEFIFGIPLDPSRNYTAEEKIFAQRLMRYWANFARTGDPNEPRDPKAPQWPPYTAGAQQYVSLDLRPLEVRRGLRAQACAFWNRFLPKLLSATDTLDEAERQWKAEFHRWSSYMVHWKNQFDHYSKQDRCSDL
Description: Inhibition of human erythrocyte AChE using acetylthiocholine iodide as substrate preincubated for 5 mins followed by substrate addition measured at 2 mins time interval by Ellman's method

[3] = target: T3, Muscarinic acetylcholine receptor M1 (Homo sapiens, UniProt P11229); format: functional, cell-based, CHO
T3 sequence (P11229 whole entry): T1 sequence (whole entry)

in vitro [4] = conditions: PAMPA
HepG2 = assay: cells; format: ADME, cell-based; conditions: Homo sapiens, HepG2, 24 h
Description: Cytotoxicity against human HepG2 cells assessed as reduction in cell viability after 24 hrs by MTT assay

[5] = Solubility of the compound in PBS buffer; format: physicochemical
in vitro [6] = conditions: PAMPA; remark: listed apart in the source
Acetylcholinesterase [7] = target: T2, Acetylcholinesterase; assay: Mixed type inhibition of human erythrocyte AChE assessed as enzyme-substrate-inhibitor complex using varying levels of acetylthiocholine iodide as substrate preincubated for 5 mins followed by substrate addition by Lineweaver-Burk plot analysis
Acetylcholinesterase [8] = target: T2, Acetylcholinesterase; assay: Mixed type inhibition of human erythrocyte AChE assessed as enzyme-inhibitor complex using varying levels of acetylthiocholine iodide as substrate preincubated for 5 mins followed by substrate addition by Lineweaver-Burk plot analysis

Sequence of Cholinesterase (P06276 whole entry): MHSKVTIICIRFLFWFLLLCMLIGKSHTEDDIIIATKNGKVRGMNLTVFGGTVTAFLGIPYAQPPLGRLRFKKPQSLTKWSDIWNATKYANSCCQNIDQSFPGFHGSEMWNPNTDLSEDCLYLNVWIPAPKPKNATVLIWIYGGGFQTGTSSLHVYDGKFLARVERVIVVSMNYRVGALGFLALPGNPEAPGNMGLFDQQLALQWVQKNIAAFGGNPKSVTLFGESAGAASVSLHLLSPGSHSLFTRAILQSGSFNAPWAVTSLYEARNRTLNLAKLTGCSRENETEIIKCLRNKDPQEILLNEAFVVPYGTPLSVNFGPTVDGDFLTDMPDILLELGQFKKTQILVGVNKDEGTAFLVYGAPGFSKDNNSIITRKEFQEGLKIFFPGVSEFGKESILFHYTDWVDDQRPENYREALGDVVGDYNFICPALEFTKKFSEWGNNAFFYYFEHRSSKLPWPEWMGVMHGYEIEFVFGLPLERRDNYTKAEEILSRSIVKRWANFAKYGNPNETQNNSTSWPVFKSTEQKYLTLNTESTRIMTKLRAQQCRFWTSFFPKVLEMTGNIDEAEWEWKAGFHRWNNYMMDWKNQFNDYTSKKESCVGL

Structure (SMILES): COc1ccc(Cn2cc(C(=O)O)c(=O)c3ccccc32)cc1
- pIC50 (Cholinesterase): < 3.00
- Activity [1]: Active
- pIC50 (Acetylcholinesterase [2]): < 3.00

Structure (SMILES): COc1ccc(Cn2cc(C(=O)NCCCCCCCNc3c4c(nc5ccccc35)CCCC4)c(=O)c3ccccc32)cc1
- pIC50 (Cholinesterase): 5.92
- pIC50 (Acetylcholinesterase [2]): 6.71
- pIC50 [3]: 5.67

Structure (SMILES): COc1ccc(Cn2cc(C(=O)NCCCCNc3c4c(nc5ccccc35)CCCC4)c(=O)c3ccccc32)cc1
- pIC50 (Cholinesterase): 5.88
- pIC50 (Acetylcholinesterase [2]): 6.31
- pIC50 [3]: 5.80

Structure (SMILES): COc1ccc(Cn2cc(C(=O)NCCNc3c4c(nc5cc(Cl)ccc35)CCCC4)c(=O)c3ccccc32)cc1
- pIC50 (Cholinesterase): 7.08
- Papp at 100 µM (in vitro [4]): 2.37 ×10⁻⁶ cm/s
- pIC50 (HepG2): 5.46
- pIC50 (Acetylcholinesterase [2]): 7.13
- solubility [5]: Insoluble
- pIC50 [3]: 5.37

Structure (SMILES): COc1ccc(Cn2cc(C(=O)NCCCCCCCCNc3c4c(nc5cc(Cl)ccc35)CCCC4)c(=O)c3ccccc32)cc1
- pIC50 (Cholinesterase): 4.43
- pIC50 (Acetylcholinesterase [2]): 6.92
- pIC50 [3]: 5.02

Structure (SMILES): COc1ccc(Cn2cc(C(=O)NCCNc3c4c(nc5ccccc35)CCCC4)c(=O)c3ccccc32)cc1
- pIC50 (Cholinesterase): 7.23
- Papp at 100 µM (in vitro [4]): 1.8 ×10⁻⁶ cm/s
- pIC50 (HepG2): 5.84
- pIC50 (Acetylcholinesterase [2]): 6.73
- solubility [5]: Insoluble
- pIC50 [3]: 6.18

Structure (SMILES): CC(=O)[C@H]1CC[C@H]2[C@@H]3CCC4=CC(=O)CC[C@]4(C)[C@H]3CC[C@]12C [PROGESTERONE]
- Papp at 100 µM (in vitro [4]): 8.6 ×10⁻⁶ cm/s
- Papp at 100 µM (in vitro [6]): 10.8 ×10⁻⁶ cm/s

Structure (SMILES): C[C@]12CC[C@H]3[C@@H](CCC4=CC(=O)CC[C@@]43C)[C@@H]1CC[C@@H]2O [TESTOSTERONE]
- Papp at 100 µM (in vitro [4]): 8.5 ×10⁻⁶ cm/s
- Papp at 100 µM (in vitro [6]): 11.6 ×10⁻⁶ cm/s

Structure (SMILES): COc1ccc(Cn2cc(C(=O)NCCCNc3c4c(nc5ccccc35)CCCC4)c(=O)c3ccccc32)cc1
- pIC50 (Cholinesterase): 6.17
- Papp at 100 µM (in vitro [4]): 2.6 ×10⁻⁶ cm/s
- pIC50 (HepG2): 5.66
- pIC50 (Acetylcholinesterase [2]): 6.89
- solubility [5]: Insoluble
- pIC50 [3]: 6.34

Structure (SMILES): Nc1c2c(nc3cc(Cl)ccc13)CCCC2
- pIC50 (HepG2): 4.36
- pIC50 [3]: 5.22

Structure (SMILES): COc1ccc(Cn2cc(C(=O)NCCCCCNc3c4c(nc5ccc(OC)cc35)CCCC4)c(=O)c3ccccc32)cc1
- pIC50 (Cholinesterase): 5.21
- pIC50 (Acetylcholinesterase [2]): 5.10
- pIC50 [3]: 5.86

Structure (SMILES): COc1ccc2nc3c(c(N)c2c1)CCCC3
- pIC50 (HepG2): 4.35
- pIC50 [3]: 5.43

Structure (SMILES): COc1ccc(Cn2cc(C(=O)NCCCCCCCCNc3c4c(nc5ccccc35)CCCC4)c(=O)c3ccccc32)cc1
- pIC50 (Cholinesterase): 5.89
- pIC50 (Acetylcholinesterase [2]): 6.11
- pIC50 [3]: 5.69

Structure (SMILES): COc1ccc(Cn2cc(C(=O)NCCCCNc3c4c(nc5cc(Cl)ccc35)CCCC4)c(=O)c3ccccc32)cc1
- pIC50 (Cholinesterase): 5.51
- pIC50 (Acetylcholinesterase [2]): 7.05
- pIC50 [3]: 5.39

Structure (SMILES): COc1ccc(Cn2cc(C(=O)NCCCCCCNc3c4c(nc5ccccc35)CCCC4)c(=O)c3ccccc32)cc1
- pIC50 (Cholinesterase): 6.55
- Papp at 100 µM (in vitro [4]): 2.28 ×10⁻⁶ cm/s
- pIC50 (HepG2): 5.57
- pIC50 (Acetylcholinesterase [2]): 6.71
- solubility [5]: Insoluble
- pIC50 [3]: 5.83

Structure (SMILES): COc1ccc(Cn2cc(C(=O)NCCCNc3c4c(nc5cc(Cl)ccc35)CCCC4)c(=O)c3ccccc32)cc1
- pIC50 (Cholinesterase): 5.43
- Papp at 100 µM (in vitro [4]): 3.08 ×10⁻⁶ cm/s
- pKi (Acetylcholinesterase [7]): 8.80
- pIC50 (HepG2): 5.30
- pKi (Acetylcholinesterase [8]): 8.48
- pIC50 (Acetylcholinesterase [2]): 7.38
- solubility [5]: Insoluble
- pIC50 [3]: 5.40

Structure (SMILES): COc1ccc(Cn2cc(C(=O)NCCCCCCCNc3c4c(nc5ccc(OC)cc35)CCCC4)c(=O)c3ccccc32)cc1
- pIC50 (Cholinesterase): 4.31
- Papp at 100 µM (in vitro [4]): 9.25 ×10⁻⁶ cm/s
- pIC50 (HepG2): 6.22
- pIC50 (Acetylcholinesterase [2]): 5.82
- solubility [5]: Insoluble
- pIC50 [3]: 4.94

Structure (SMILES): COc1ccc(Cn2cc(C(=O)NCCNc3c4c(nc5ccc(OC)cc35)CCCC4)c(=O)c3ccccc32)cc1
- pIC50 (Cholinesterase): 6.39
- Papp at 100 µM (in vitro [4]): 1.65 ×10⁻⁶ cm/s
- pIC50 (HepG2): 5.79
- pIC50 (Acetylcholinesterase [2]): 5.58
- solubility [5]: Insoluble
- pIC50 [3]: 5.43

Structure (SMILES): COc1ccc(Cn2cc(C(=O)NCCCCCNc3c4c(nc5cc(Cl)ccc35)CCCC4)c(=O)c3ccccc32)cc1
- pIC50 (Cholinesterase): 5.11
- pIC50 (Acetylcholinesterase [2]): 6.74
- pIC50 [3]: 5.49

Structure (SMILES): CN(C)CCCN1c2ccccc2Sc2ccccc21 [PROMAZINE]
- Papp at 100 µM (in vitro [4]): 6.6 ×10⁻⁶ cm/s
- Papp at 100 µM (in vitro [6]): 9.4 ×10⁻⁶ cm/s

Structure (SMILES): COc1ccc(Cn2cc(C(=O)NCCCCNc3c4c(nc5ccc(OC)cc35)CCCC4)c(=O)c3ccccc32)cc1
- pIC50 (Cholinesterase): 5.97
- pIC50 (Acetylcholinesterase [2]): 5.02
- pIC50 [3]: 5.97

Structure (SMILES): COc1ccc(Cn2cc(C(=O)NCCCCCCNc3c4c(nc5cc(Cl)ccc35)CCCC4)c(=O)c3ccccc32)cc1
- pIC50 (Cholinesterase): 4.87
- pIC50 (Acetylcholinesterase [2]): 7.03
- pIC50 [3]: 5.56

Structure (SMILES): COc1ccc(Cn2cc(C(=O)NCCCCCCCCNc3c4c(nc5ccc(OC)cc35)CCCC4)c(=O)c3ccccc32)cc1
- pIC50 (Cholinesterase): 4.91
- pIC50 (Acetylcholinesterase [2]): 4.13
- pIC50 [3]: 5.10

Structure (SMILES): COc1ccc(Cn2cc(C(=O)NCCCNc3c4c(nc5ccc(OC)cc35)CCCC4)c(=O)c3ccccc32)cc1
- pIC50 (Cholinesterase): 5.99
- Papp at 100 µM (in vitro [4]): 4.85 ×10⁻⁶ cm/s
- pIC50 (HepG2): 5.62
- pIC50 (Acetylcholinesterase [2]): 5.65
- solubility [5]: Insoluble
- pIC50 [3]: 5.61

Structure (SMILES): COc1ccc(Cn2cc(C(=O)NCCCCCNc3c4c(nc5ccccc35)CCCC4)c(=O)c3ccccc32)cc1
- pIC50 (Cholinesterase): 6.08
- pIC50 (Acetylcholinesterase [2]): 6.53
- pIC50 [3]: 5.83

Structure (SMILES): COc1ccc(Cn2cc(C(=O)NCCCCCCCNc3c4c(nc5cc(Cl)ccc35)CCCC4)c(=O)c3ccccc32)cc1
- pIC50 (Cholinesterase): 5.48
- Papp at 100 µM (in vitro [4]): 2.35 ×10⁻⁶ cm/s
- pIC50 (HepG2): < 4.40
- pIC50 (Acetylcholinesterase [2]): 7.29
- solubility [5]: Insoluble
- pIC50 [3]: 5.27

Structure (SMILES): COc1ccc(Cn2cc(C(=O)NCCCCCCNc3c4c(nc5ccc(OC)cc35)CCCC4)c(=O)c3ccccc32)cc1
- pIC50 (Cholinesterase): 4.78
- pIC50 (Acetylcholinesterase [2]): 5.00
- pIC50 [3]: 5.06
